Experimental data taken from ChEMBL document CHEMBL1156380, “Inhibition of Mycobacterium tuberculosis growth by saringosterol from Lessonia nigrescens” (J Nat Prod, 2001).
Values after ≈ are worked out from the molar mass of the structure shown. Active and inactive are the calls of the source. The rule behind the calls is not given here.

Key:
[1] = tested on: Mycobacterium tuberculosis; test: Antitubercular activity against Mycobacterium tuberculosis H37Rv ATCC 27294 by BACTEC 460 radiometric assay; assay type: functional
Vero = test: Cytotoxicity against african green monkey Vero cells by celltiter 96 aqueous nonradioactive assay; assay type: cell-based; conditions: Chlorocebus sabaeus

SMILES	MIC [1]	IC50 (Vero) [µg/mL]
C=C[C@@](O)(CC[C@@H](C)[C@H]1CC[C@H]2[C@@H]3CC=C4C[C@@H](O)CC[C@]4(C)[C@H]3CC[C@]12C)C(C)C	0.125 µg/mL (≈ 0.292 µM)	–
C=C[C@](O)(CC[C@@H](C)[C@H]1CC[C@H]2[C@@H]3CC=C4C[C@@H](O)CC[C@]4(C)[C@H]3CC[C@]12C)C(C)C	1 µg/mL (≈ 2.33 µM)	–
C=CC(O)(CC[C@@H](C)[C@H]1CC[C@H]2[C@@H]3CC=C4C[C@@H](O)CC[C@]4(C)[C@H]3CC[C@]12C)C(C)C (stereo partly specified) [SARINGOSTEROL]	0.25 µg/mL (≈ 0.583 µM)	> 128
CO[C@H]1/C=C/O[C@@]2(C)Oc3c(C)c(O)c4c(O)c(c(/C=N/N5CCN(C)CC5)c(O)c4c3C2=O)NC(=O)/C(C)=C\C=C\[C@H](C)[C@H](O)[C@@H](C)[C@@H](O)[C@@H](C)[C@H](OC(C)=O)[C@@H]1C [RIFAMPIN]	0.25 µg/mL (≈ 0.304 µM)	–
C/C=C(\CC[C@@H](C)[C@H]1CC[C@H]2[C@@H]3CC=C4C[C@@H](O)CC[C@]4(C)[C@H]3CC[C@]12C)C(C)C	inactive	–
